The source made the active and inactive calls. The calls are words filed in the database; no cut-off is given here.
Columns and labels:
MDA-MB-231 [1] = test: Induction of apoptosis in human MDA-MB-231 cells assessed as cleaved caspase-7 accumulation at 20 uM after 12 hrs by Western blot analysis; format: functional, cell-based
[2] = molecular target: Mitogen-activated protein kinase 3 (Homo sapiens) (UniProt P27361); test: Increase in ERK1 phosphorylation in human MDA-MB-231 cells at 20 uM by Western blot analysis; format: cell-based; settings: TDE = time-dependent effect
Sequence of Mitogen-activated protein kinase 3 (Homo sapiens) (P27361 whole entry): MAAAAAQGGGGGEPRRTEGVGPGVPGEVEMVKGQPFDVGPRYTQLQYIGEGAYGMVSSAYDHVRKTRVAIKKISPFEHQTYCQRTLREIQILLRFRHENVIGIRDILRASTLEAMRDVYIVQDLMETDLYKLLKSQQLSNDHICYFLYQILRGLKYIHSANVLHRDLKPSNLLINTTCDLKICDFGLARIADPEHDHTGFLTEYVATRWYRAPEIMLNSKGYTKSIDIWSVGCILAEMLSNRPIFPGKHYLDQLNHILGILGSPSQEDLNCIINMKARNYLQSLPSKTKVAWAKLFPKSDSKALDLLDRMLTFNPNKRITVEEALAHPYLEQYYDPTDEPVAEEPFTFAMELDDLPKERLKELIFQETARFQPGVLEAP

[3] = molecular target: Mitogen-activated protein kinase 1 (Homo sapiens) (UniProt P28482); test: Increase in ERK2 phosphorylation in human MDA-MB-231 cells at 20 uM by Western blot analysis; format: cell-based; settings: TDE = time-dependent effect
Sequence of Mitogen-activated protein kinase 1 (Homo sapiens) (P28482 whole entry): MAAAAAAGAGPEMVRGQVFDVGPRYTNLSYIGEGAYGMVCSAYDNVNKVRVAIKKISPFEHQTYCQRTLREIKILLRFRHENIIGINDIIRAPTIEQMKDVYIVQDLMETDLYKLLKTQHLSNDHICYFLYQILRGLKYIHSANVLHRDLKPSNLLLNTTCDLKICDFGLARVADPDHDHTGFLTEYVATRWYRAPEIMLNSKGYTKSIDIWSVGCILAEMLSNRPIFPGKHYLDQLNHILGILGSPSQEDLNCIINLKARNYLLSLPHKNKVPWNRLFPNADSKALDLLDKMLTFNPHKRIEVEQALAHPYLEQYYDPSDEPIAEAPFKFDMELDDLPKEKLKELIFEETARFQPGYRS

[4] = Stability of the compound in DMEM media assessed as compound degradation at 25 ppm after 3 hrs by HPLC; format: physicochemical; settings: read-out: Activity
MDA-MB-231 [5] = test: Effect on JNK1 protein level in human MDA-MB-231 cells at 20 uM up to 120 mins by Western blot analysis; format: functional, cell-based
[6] = molecular target: Mitogen-activated protein kinase 8 (Homo sapiens) (UniProt P45983); test: Increase in JNK1 phosphorylation in human MDA-MB-231 cells at 20 uM by Western blot analysis; format: cell-based; settings: TDE = time-dependent effect
Sequence of Mitogen-activated protein kinase 8 (Homo sapiens) (P45983 whole entry): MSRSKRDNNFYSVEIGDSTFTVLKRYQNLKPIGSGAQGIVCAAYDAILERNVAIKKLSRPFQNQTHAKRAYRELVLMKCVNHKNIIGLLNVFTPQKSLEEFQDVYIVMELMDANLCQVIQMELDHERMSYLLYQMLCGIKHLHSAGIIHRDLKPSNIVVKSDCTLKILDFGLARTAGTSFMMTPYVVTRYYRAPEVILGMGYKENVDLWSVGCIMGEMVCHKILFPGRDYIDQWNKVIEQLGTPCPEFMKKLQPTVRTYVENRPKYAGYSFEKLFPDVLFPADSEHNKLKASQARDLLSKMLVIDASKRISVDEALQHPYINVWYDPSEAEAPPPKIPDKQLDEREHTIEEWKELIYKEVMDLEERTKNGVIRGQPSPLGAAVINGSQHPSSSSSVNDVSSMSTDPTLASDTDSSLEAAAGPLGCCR

[7] = molecular target: MAP kinase p38 (Homo sapiens) (UniProt O15264+Q15759+Q16539+P53778); test: Increase in p38 kinase phosphorylation in human MDA-MB-231 cells at 20 uM by Western blot analysis; format: cell-based; settings: TDE = time-dependent effect
MDA-MB-231 [8] = test: Increase in c-Fos protein expression in human MDA-MB-231 cells at 20 uM within 30 mins by Western blot analysis; format: functional, cell-based
MDA-MB-231 [9] = test: Effect on p38 kinase protein level in human MDA-MB-231 cells at 20 uM up to 120 mins by Western blot analysis; format: functional, cell-based
MDA-MB-231 [10] = test: Increase in Egr-1 protein expression in human MDA-MB-231 cells at 20 uM within 30 mins by Western blot analysis; format: functional, cell-based
[11] = molecular target: Mitogen-activated protein kinase 9 (Homo sapiens) (UniProt P45984); test: Increase in JNK2 phosphorylation in human MDA-MB-231 cells at 20 uM by Western blot analysis; format: cell-based; settings: TDE = time-dependent effect
Sequence of Mitogen-activated protein kinase 9 (Homo sapiens) (P45984 whole entry, looked up): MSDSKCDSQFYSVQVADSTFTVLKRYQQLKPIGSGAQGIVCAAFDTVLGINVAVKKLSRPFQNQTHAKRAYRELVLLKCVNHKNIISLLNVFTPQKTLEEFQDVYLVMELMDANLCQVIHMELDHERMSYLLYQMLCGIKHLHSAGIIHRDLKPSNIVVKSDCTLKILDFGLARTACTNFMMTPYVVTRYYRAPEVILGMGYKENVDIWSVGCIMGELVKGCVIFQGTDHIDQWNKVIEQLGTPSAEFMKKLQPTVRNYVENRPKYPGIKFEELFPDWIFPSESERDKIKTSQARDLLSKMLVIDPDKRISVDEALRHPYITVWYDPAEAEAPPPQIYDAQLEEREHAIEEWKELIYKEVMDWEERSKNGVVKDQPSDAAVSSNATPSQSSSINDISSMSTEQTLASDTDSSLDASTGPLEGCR

MDA-MB-231 [12] = test: Effect on JNK2 protein level in human MDA-MB-231 cells at 20 uM up to 120 mins by Western blot analysis; format: functional, cell-based
MDA-MB-231 [13] = test: Effect on ERK2 protein level in human MDA-MB-231 cells at 20 uM up to 120 mins by Western blot analysis; format: functional, cell-based
MDA-MB-231 [14] = test: Effect on ERK1 protein level in human MDA-MB-231 cells at 20 uM up to 120 mins by Western blot analysis; format: functional, cell-based

SMILES: O=c1c(O)c(-c2ccc(O)c(O)c2)oc2cc(O)cc(O)c12 [QUERCETIN]
- Activity (MDA-MB-231 [1]): Active
- Activity [2]: tde
- Activity [3]: tde
- degraded at 3 h, 25 ppm [4]: 60%
- Activity (MDA-MB-231 [5]): inactive
- Activity [6]: tde
- Activity [7]: tde
- Activity (MDA-MB-231 [8]): Active
- Activity (MDA-MB-231 [9]): inactive
- Activity (MDA-MB-231 [10]): Active
- Activity [11]: tde
- Activity (MDA-MB-231 [12]): inactive
- Activity (MDA-MB-231 [13]): inactive
- Activity (MDA-MB-231 [14]): inactive

SMILES: COc1cc(O)c2c(=O)c(O)c(-c3ccc(O)c(O)c3)oc2c1 [RHAMNETIN]
- Activity (MDA-MB-231 [1]): Active
- Activity [2]: tde
- Activity [3]: tde
- degraded at 3 h, 25 ppm [4]: 4%
- Activity (MDA-MB-231 [5]): inactive
- Activity [6]: tde
- Activity [7]: tde
- Activity (MDA-MB-231 [8]): Active
- Activity (MDA-MB-231 [9]): inactive
- Activity (MDA-MB-231 [10]): Active
- Activity [11]: tde
- Activity (MDA-MB-231 [12]): inactive
- Activity (MDA-MB-231 [13]): inactive
- Activity (MDA-MB-231 [14]): inactive

From ChEMBL document CHEMBL1795272, “Rhamnetin production based on the rational design of the poplar O-methyltransferase enzyme and its biological activities” (Bioorg Med Chem Lett, 2011)
